Reference: patent US20240199651A1, “ANTIBACTERIAL COMPOUNDS” (JANSSEN SCIENCES IRELAND UNLIMITED COMPANY, priority 2021, published 2024)
Like-named read-outs stand apart in the source and are kept apart here.

Columns and labels:
[1] = system: Mycobacterium tuberculosis strain EH4.0 expressing green-fluorescent protein (GFP); test: microbe, parasite or virus in culture; format: cell-based
[2] = LM CLint (microsomal stability), human; format: in vitro ADME; details: for CLint Microsomes, Human (h): 1 μm; for microsomal CLint at 1 µM: liver microsomes, read-out: CLint Microsomes, Human (h)
From the text: (§1) The compounds of the invention/examples may have advantages associated with in vitro potency, kill kinetics (i.e. bactericidal effect) in vitro, PK properties, food effect, safety/toxicity (including liver toxicity, coagulation, 5-LO oxygenase), metabolic stability, Ames II negativity, MNT negativity, aqueous based solubility (and ability to formulate) and/or cardiovascular effect e.g. on animals (e.g. anesthetized guinea pig). Data that is generated/calculated may be obtained using standard methods/assays, for instance that are available in the literature or which may be performed by a supplier (e.g. Microsomal Stability Assay—Cyprotex, Mitochondrial toxicity (Glu/Gal) assay—Cyprotex, as well as literature CYP cocktail inhibition assays). GSH can be measured (reactive metabolites, glucuronidation) to observe if a dihydrodiol is observed by LCMS (fragmentation ions), which would correspond to a dihydroxylation on the core heterocycle.
(§2) CLint Microsomes (μL/Min/Mg) in Dog (d), Human (h), Mouse (m) and Rat (r) (all at 1 μm)

[3] = Mitochondrial toxicity (Glu/Gal) assay; format: cell-based; set-up: Glu/Gal: Glu / Glu/Gal: Gal: unit not given here; details: for Score: mitotoxicity score, Glu/Gal assay; for Δ IC50, glu/IC50, gal: ratio IC50 glu / IC50 gal; for Glu/Gal: Glu: first value (Glu); for Glu/Gal: Gal: second value (Gal)
[4] = Chemical stability testing (LCMS); format: physicochemical
Method: • Add 3 μl of a 10 mM DMSO stock solution to 1 ml of the following solvents in a 1.5 ml HPLC vial. • DMSO (reference solution) • H2O/Acetonitril 1/1 (assay solution) • 0.1N HCl/Acetonitril 1/1 (assay solution) • Mix well, […] LCMS • Compare the chromatograms of the two assay solutions with the reference solution and report the additional peaks as degradation peaks

[5] = LM CLint (microsomal stability), mouse; format: in vitro ADME; details: for microsomal CLint at 1 µM: microsomes
From the text: as §1, §2

MDCK = MDCK permeability (AB+inh, BA/AB); details: with inhibitor
AMES II = format: cell-based; details: score
From the text: as §1

[6] = LM CLint (microsomal stability), rat; format: in vitro ADME; details: microsomes, 1 μm, read-out: CLint Microsomes, Rat (r)
From the text: as §1, §2

[7] = LM CLint (microsomal stability), dog; format: in vitro ADME; details: microsomes, 1 μm, read-out: CLint Microsomes, Dog (d)
From the text: as §1, §2

[8] = galactose medium (Glu/Gal mitotoxicity assay), read-out: IC50, gal
[9] = glucose medium (Glu/Gal mitotoxicity assay), read-out: IC50, glu
[10] = Mycobacterium tuberculosis, Test 1 (and/or Test 2), M. tuberculosis
[11] = 1 μm, read-out: CLint Microsomes, Mouse (m)

SMILES | microsomal CLint at 1 µM [2] [µL/min/mg] | IC50 ([3]; read-out: IC50, gal) [µM] | IC50 ([3]; read-out: IC50, glu) [µM] | microsomal CLint at 1 µM [5, 11] [µL/min/mg] | chemical stability, % by LCMS ([4]; 48 h, 30 µM) [%] | chemical stability, % by LCMS ([4]; 48 h, 30 µM, pH 1.6) [%] | other results
CCc1nc2ncc(C)cn2c1C(=O)NCc1ccc(-c2cn3c(n2)CN(S(=O)(=O)C(F)(F)F)CC3)c(F)c1 [Compound 80] | – | – | – | – | – | – | pIC50 [1]: 8.06; CLint Microsomes, Human (h) [2]: 39.8 μL/Min/Mg; IC50 [3, 8]: > 200 µM; IC50 [3, 9]: > 200 µM; chemical stability, % by LCMS ([4]; ACN/0.1N HCl (pH 1.6; 0 hr, rt)): 100%; chemical stability, % by LCMS ([4]; ACN/0.1N HCl (pH 1.6; 48 hr, rt)): 100%; chemical stability, % by LCMS ([4]; ACN/0.1N NaOH (pH 9-10; 0 hr, rt)): 76.8%; chemical stability, % by LCMS ([4]; ACN/0.1N NaOH (pH 9-10; 48 hr, rt)): 16.8%; chemical stability, % by LCMS ([4]; DMSO (0 hr, rt)): 100%; chemical stability, % by LCMS ([4]; DMSO (48 hr, rt)): 100%; CLint Microsomes, Mouse (m) ([5]; 1 μm): 13.2 μL/Min/Mg
Cc1cnc2nc(C3CC3)c(C(=O)NCc3ccc(-c4nc5n(n4)CCN(S(=O)(=O)C(F)(F)F)C5)c(C)c3)n2c1 [Compound 98] | 51.8 | 97.8 | 177 | 26.9 | – | – | AC50 [1, 10]: 0.017 µM; Score [3]: [x]1; Δ IC50, glu/IC50, gal [3]: 1.81
CCc1nc2ncc(C)cn2c1C(=O)NCc1ccc(-c2nc3n(n2)CCN(S(=O)(=O)N2CCCC2)C3)cc1 [Compound 47] | 58.5 | > 200 | > 200 | 13.9 | 99 | 100 | –
CCc1nc2ncc(C)cn2c1C(=O)NCc1ccc(-c2cc3n(n2)CCN(S(=O)(=O)C(F)(F)F)C3)c(F)c1 [Compound 82] | – | > 25 | > 25 | – | 100 | 100 | MDCK AB+inh (MDCK): 16.2; Glu/Gal: Glu [3]: > 25; Glu/Gal: Gal [3]: > 25; AMES II (AMES II): 1
CCc1nc2ncc(C)cn2c1C(=O)NCc1ccc(-c2cc3n(n2)CCN(S(=O)(=O)C(F)(F)F)C3)cc1 [Compound 44] | 176 | > 200 | > 200 | 20 | 100 | 100 | –
CCc1nc2ncc(C)cn2c1C(=O)NCCc1ccc(-c2nc3n(n2)CCN(S(=O)(=O)C(F)(F)F)C3)cc1 [Compound 66] | 39.6 | > 200 | > 200 | 92.3 | 98 | 98 | IC50 [1, 10]: 0.269 µM; chemical stability, % by LCMS ([4]; 0 h, 30 µM): 91%
Cc1cnc2nc(C3CC3)c(C(=O)NCc3ccc(-c4cn5c(n4)CN(S(=O)(=O)C(F)(F)F)CC5)cc3)n2c1 [Compound 94] | 98.1 | > 200 | > 200 | 18.1 | – | – | AC50 [1, 10]: 0.063 µM
CCc1nc2ncc(C)cn2c1C(=O)NCc1cccc(Cc2nc3n(n2)CCN(S(=O)(=O)C(F)(F)F)C3)c1 [Compound 71] | – | > 200 | > 200 | – | – | – | IC50 [1, 10]: > 0.501 µM
CCc1nc2ncc(C)cn2c1C(=O)NCc1ccc(-c2nn3c(c2C)CN(S(=O)(=O)C(F)(F)F)CC3)c(F)c1 [Compound 87] | – | – | – | – | – | – | AC50 [1]: 0.036 µM; IC50 [3, 8]: 25.4 µM; IC50 [3, 9]: 85.8 µM; Δ IC50, glu/IC50, gal [3]: 3.38
CCc1nc2ncc(C)cn2c1C(=O)NCc1cnc(-c2cc3n(n2)CCN(S(=O)(=O)C(F)(F)F)C3)c(C)c1 [Compound 129] | 50.4 | > 200 | > 200 | 29.4 | – | – | –
Cc1cnc2nc(C3CC3)c(C(=O)NCc3ccc(-c4cc5n(n4)CCN(S(=O)(=O)C(C)C)C5)cc3)n2c1 [Compound 106] | 111 | > 100 | > 100 | 83.4 | – | – | –
CCc1nc2ncc(C)cn2c1C(=O)NCc1ccc(-c2nn3c(c2C)CN(S(=O)(=O)C(F)(F)F)CC3)cc1 [Compound 85] | – | – | – | – | – | – | AC50 ([1]; Test 1 (and/or Test 2), M. tuberculosis): 0.018 µM; IC50 [3, 8]: 30.1 µM; IC50 [3, 9]: > 200 µM; Score [3]: [x]3; Δ IC50, glu/IC50, gal [3]: >6.65
CCc1nc2ccc(C)cn2c1C(=O)NCc1ccc(-c2nc3n(n2)CCN(S(=O)(=O)C(F)(F)F)C3)cc1 [Compound 24] | 169 | > 200 | > 200 | 76.3 | 100 | 100 | chemical stability, % by LCMS ([4]; 0 h, 30 µM): 100%; chemical stability, % by LCMS ([4]; 0 h, 30 µM, pH 1.6): 100%; chemical stability, % by LCMS ([4]; 0 h, 30 µM, pH 9): 89.46%; chemical stability, % by LCMS ([4]; 48 h, 30 µM, pH 9): 43.8%
CCc1nc2ncc(C)cn2c1C(=O)NCc1ccc(-c2cc3n(n2)CCN(S(=O)(=O)C(F)(F)F)C3)nc1 [Compound 127] | 31.5 | > 200 | > 200 | 9.29 | – | – | AC50 [1, 10]: 0.049 µM
CCc1nc2ccc(Cl)cn2c1C(=O)NCc1cnc(-c2nc3n(n2)CCN(S(=O)(=O)C(F)(F)F)C3)c(F)c1 [Compound 15] | 16.2 | > 200 | > 200 | 50.6 | – | – | chemical stability, % by LCMS ([4]; 72 h, 30 µM): 97.03%; chemical stability, % by LCMS ([4]; 72 h, 30 µM, pH 1.6): 97.49%
CCc1nc2nc3c(cn2c1C(=O)NCc1ccc(-c2nc4n(n2)CCN(S(=O)(=O)C(F)(F)F)C4)c(F)c1)CCOC3 [Compound 18] | 20.1 | 184 | > 200 | 36.9 | – | – | Score [3]: [x]1; Δ IC50, glu/IC50, gal [3]: >1.09
CCc1nc2ncc(C)cn2c1C(=O)NCc1ccc(-c2nc3n(n2)CCN(S(=O)(=O)C(F)(F)F)C3)c(F)c1 [Compound 7] | – | > 200 | > 200 | – | – | – | MDCK AB+inh (MDCK): 21.4; Glu/Gal: Glu [3]: > 200; Glu/Gal: Gal [3]: > 200; chemical stability, % by LCMS ([4]; 72 h, 30 µM): 100%; chemical stability, % by LCMS ([4]; 72 h, 30 µM, pH 1.6): 100%; microsomal CLint at 1 µM [5]: < 7.7 µL/min/mg
CCc1nc2ccc(C)cn2c1C(=O)NCc1ccc(-c2cc3n(n2)CCN(S(=O)(=O)C(F)(F)F)C3)cc1 [Compound 81] | > 347 | > 200 | > 200 | 74.8 | 100 | 100 | microsomal CLint at 1 µM [6]: 80.7 µL/min/mg; microsomal CLint at 1 µM [7]: 189 µL/min/mg; chemical stability, % by LCMS ([4]; 0 h, 30 µM): 95%
CCc1nc2ncc(C)cn2c1C(=O)NCc1ccc(-c2cc3n(n2)CCN(S(=O)(=O)C(F)(F)F)C3)c(C)c1 [Compound 84] | – | – | – | – | – | – | AC50 [1]: 0.0076 µM; CLint Microsomes, Human (h) [2]: 205 μL/Min/Mg; IC50 [3, 8]: 62.5 µM; IC50 [3, 9]: > 200 µM; Δ IC50, glu/IC50, gal [3]: >3.2; CLint Microsomes, Mouse (m) ([5]; 1 μm): 21.2 μL/Min/Mg
